Data taken from ChEMBL document CHEMBL1687721, “New drugs against tuberculosis: problems, progress, and evaluation of agents in clinical development” (Antimicrob Agents Chemother, 2009).
Values after ≈ are worked out from the molar mass of the structure shown.

Key:
[1] = system: Mycobacterium tuberculosis; assay: microbe, parasite or virus in culture
Description: Antimicrobial activity against Mycobacterium tuberculosis

[2] = system: Mycobacterium tuberculosis; assay: Antimicrobial activity against compound-susceptible Mycobacterium tuberculosis; assay type: functional
[3] = Tmax in human; assay type: ADME, organism-based; details: in vivo
[4] = Half life in human; assay type: ADME, organism-based; details: in vivo
[5] = system: Mycobacterium tuberculosis; assay type: functional
[6] = Renal excretion in healthy human at 400 mg/kg, po administered as single dose; assay type: ADME, organism-based, Kidney; set-up: dose 400 mg/kg, route oral; details: urine, read-out: Activity
[7] = Oral bioavailability in healthy human at 400 mg/kg, po; assay type: ADME, organism-based; details: in vivo
clinical [8] = details: human, plasma, po, 400 mg/kg
Description: Plasma protein binding in healthy human at 400 mg/kg, po

clinical [9] = details: human, in vivo, po, 400 mg/kg
Description: Tmax in patients with pulmonary tuberculosis at 400 mg/kg, po

[10] = system: Mycobacterium tuberculosis; assay: microbe, parasite or virus in culture; remark: listed apart in the source
Description: Antimicrobial activity against rifampicin-sensitive Mycobacterium tuberculosis

[11] = Drug excretion in urine of healthy human at 800 mg/kg; assay type: ADME, organism-based; set-up: dose 800 mg/kg; details: read-out: Activity
[12] = AUC in healthy human at 400 mg/kg, po; assay type: ADME, organism-based; set-up: dose 400 mg/kg, route oral; details: plasma
[13] = Drug excretion in feces of healthy human at 800 mg/kg; assay type: ADME, organism-based; set-up: dose 800 mg/kg; details: faeces, read-out: Activity
[14] = Tmax in healthy human; assay type: ADME, organism-based; details: in vivo
[15] = Half life in healthy human; assay type: ADME, organism-based; details: in vivo
[16] = Drug excretion in urine of healthy human; assay type: ADME, tissue-based; details: read-out: Activity
[17] = Drug excretion in feces of healthy human; assay type: ADME; details: faeces, read-out: Activity
[18] = Tmax in healthy human at 10 mg/kg, po; assay type: ADME, organism-based; set-up: dose 10 mg/kg, route oral; details: in vivo
clinical [19] = details: human, in vivo, po, 10 mg/kg
[20] = AUC in healthy human at 10 mg/kg, po; assay type: ADME, organism-based; set-up: dose 10 mg/kg, route oral; details: plasma
[21] = Oral bioavailability in healthy human at 10 mg/kg, po; assay type: ADME, organism-based; details: in vivo
[22] = Plasma protein binding in healthy human at 10 mg/kg, po; assay type: ADME, organism-based; set-up: dose 10 mg/kg, route oral; details: read-out: PPB (converted)
Mycobacterium avium = assay: Antimicrobial activity against Mycobacterium avium; assay type: functional
[23] = Half life in healthy human at 600 mg/kg, po; assay type: ADME, organism-based; set-up: dose 600 mg/kg, route oral; details: in vivo
[24] = Tmax in healthy human at 600 mg/kg, po; assay type: ADME, organism-based; set-up: dose 600 mg/kg, route oral; details: in vivo
[25] = AUC in healthy human at 600 mg/kg, po; assay type: ADME, organism-based; set-up: dose 600 mg/kg, route oral; details: plasma
[26] = Cmax in healthy human at 600 mg/kg, po; assay type: ADME, organism-based; set-up: dose 600 mg/kg, route oral; details: in vivo
[27] = Plasma protein binding in healthy human at 600 mg/kg, po; assay type: ADME, organism-based; set-up: dose 600 mg/kg, route oral; details: read-out: PPB (converted)
[28] = Ratio of AUC to MIC against Mycobacterium avium; assay type: functional
[29] = Plasma protein binding in human at 0.1 to 2.5 ug/ml by ultracentrifugation; assay type: ADME, cell-free; details: read-out: PPB (converted)
[30] = Plasma protein binding in CD2F1 mouse at 0.1 to 2.5 ug/ml by ultracentrifugation; assay type: ADME, cell-free; details: read-out: PPB (converted)
[31] = Plasma protein binding in Fischer rat at 0.1 to 2.5 ug/ml by ultracentrifugation; assay type: ADME, cell-free; details: read-out: PPB (converted)
[32] = Plasma protein binding in Beagle dog at 0.1 to 2.5 ug/ml by ultracentrifugation; assay type: ADME, cell-free, Canis lupus familiaris; details: read-out: PPB (converted)

Q: Which MIC90 [1] does the source give for `Cc1c(CN2CCN(c3ccc(C(F)(F)F)cc3)CC2)cc(-c2ccccc2)n1NC(=O)c1ccncc1` here?
A: Its MIC90 is 0.25 µg/mL (≈ 0.481 µM).

Q: For `C[C@]1(COc2ccc(N3CCC(Oc4ccc(OC(F)(F)F)cc4)CC3)cc2)Cn2cc([N+](=O)[O-])nc2O1`, which MIC [2] is on record?
A: Its MIC is 0.006 µg/mL (≈ 0.0112 µM).

Q: What does the source list for `COc1nc2ccc(Br)cc2cc1[C@@H](c1ccccc1)[C@@](O)(CCN(C)C)c1cccc2ccccc12` [BEDAQUILINE]?
A: MIC [2]: 0.03 µg/mL (≈ 0.054 µM); Tmax [3]: 5 h; half-life [4]: 24 h

Q: Which Activity [5] does the source give for `CC[C@@H](CO)NCCN[C@@H](CC)CO` [ETHAMBUTOL] here?
A: The Activity was 26%.

Q: For `COc1c(N2CCNC(C)C2)c(F)cc2c(=O)c(C(=O)O)cn(C3CC3)c12` (stereo unspecified) [GATIFLOXACIN], which dose excreted [6] is on record?
A: The dose excreted was 77%.

Q: What about the bioavailability [7] of the same compound?
A: The bioavailability was 96%.

Q: And the fraction unbound (clinical [8])?
A: Its fraction unbound is 0.8.

Q: And the Tmax (clinical [9])?
A: Its Tmax is 1.5 h.

Q: Which Activity [5] does the source give for `COc1c(N2C[C@@H]3CCCN[C@@H]3C2)c(F)cc2c(=O)c(C(=O)O)cn(C3CC3)c12` [MOXIFLOXACIN] here?
A: Its Activity is 37%.

Q: And the MIC [10]?
A: Its MIC is 0.25 µg/mL (≈ 0.623 µM).

Q: And the dose excreted [11]?
A: Its dose excreted is 20%.

Q: And the AUC [12]?
A: Its AUC is 26900 ng·h/mL.

Q: What about the bioavailability [7] of the same compound?
A: The bioavailability was 86%.

Q: What about the dose excreted [13] of the same compound?
A: Its dose excreted is 25%.

Q: And the Tmax (clinical [9])?
A: Its Tmax is 1 h.

Q: For `O=[N+]([O-])c1cn2c(n1)OC[C@@H](OCc1ccc(OC(F)(F)F)cc1)C2` [PRETOMANID], which Tmax [14] is on record?
A: The Tmax was 4 h.

Q: What about the MIC [2] of the same compound?
A: The MIC was 0.015 µg/mL (≈ 0.0418 µM).

Q: What about the half-life [15] of the same compound?
A: The half-life was 18 h.

Q: And the dose excreted [16]?
A: The dose excreted was 65%.

Q: And the dose excreted [17]?
A: Its dose excreted is 26%.

Q: Which Tmax [18] does the source give for `CO[C@H]1/C=C/O[C@@]2(C)Oc3c(C)c(O)c4c(O)c(c(/C=N/N5CCN(C)CC5)c(O)c4c3C2=O)NC(=O)/C(C)=C\C=C\[C@H](C)[C@H](O)[C@@H](C)[C@@H](O)[C@@H](C)[C@H](OC(C)=O)[C@@H]1C` [RIFAMPIN] here?
A: The Tmax was 1.5 h.

Q: What about the MIC [1] of the same compound?
A: Its MIC is 0.15 µg/mL (≈ 0.182 µM).

Q: What about the Cmax (clinical [19]) of the same compound?
A: The Cmax was 8000 ng/mL.

Q: And the AUC [20]?
A: The AUC was 21500 ng·h/mL.

Q: What about the bioavailability [21] of the same compound?
A: The bioavailability was 68%.

Q: And the fraction unbound [22]?
A: The fraction unbound was 0.15.

Q: What about the MIC (Mycobacterium avium) of the same compound?
A: The MIC was 0.15 µg/mL (≈ 0.182 µM).

Q: Which results are given for `CO[C@H]1/C=C/O[C@@]2(C)Oc3c(C)c(O)c4c(O)c(c(/C=N/N5CCN(C6CCCC6)CC5)c(O)c4c3C2=O)NC(=O)/C(C)=C\C=C\[C@H](C)[C@H](O)[C@@H](C)[C@@H](O)[C@@H](C)[C@H](OC(C)=O)[C@@H]1C` [RIFAPENTINE]?
A: half-life [23]: 13 h; MIC [10]: 0.02 µg/mL (≈ 0.0228 µM); Tmax [24]: 4.8 h; AUC [25]: 319000 ng·h/mL; Cmax [26]: 10000 ng/mL; fraction unbound [27]: 0.03; RatioAUC/MIC [28]: 76.6

Q: For `CC(C)=CCC/C(C)=C/CNCCNC1C2CC3CC(C2)CC1C3` (stereo unspecified) [SQ109], which MIC [2] is on record?
A: Its MIC is 0.16 µg/mL (≈ 0.484 µM).

Q: And the fraction unbound [29]?
A: Its fraction unbound is 0.94.

Q: What about the fraction unbound [30] of the same compound?
A: The fraction unbound was 0.94.

Q: And the fraction unbound [31]?
A: The fraction unbound was 0.94.

Q: And the fraction unbound [32]?
A: The fraction unbound was 0.94.
